Results from PubChem BioAssay (NCI).
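Compound exposure: 48 hours, 5 concentrations, 96-well plates. TGI is the concentration that stops growth completely.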

Columns and labels:
Assay in all cases: growth of human tumour cells (NCI), 48 h
[1] = tested on: MDA-N
[2] = tested on: HCT-116 colon
[3] = tested on: SNB-75 CNS
[4] = tested on: SK-MEL-28 melanoma
[5] = tested on: HL-60(TB) leukemia
[6] = tested on: TK-10 renal
[7] = tested on: OVCAR-5 ovarian
[8] = tested on: NCI-H522 lung
[9] = tested on: M14 melanoma
[10] = tested on: HS 578T breast
[11] = tested on: T-47D breast
[12] = tested on: MCF7 breast
[13] = tested on: EKVX NSCLC
[14] = tested on: ACHN renal
[15] = tested on: SF-268 CNS
[16] = tested on: HCT-15 colon
[17] = tested on: SNB-19 CNS
[18] = tested on: RPMI-8226 leukemia
[19] = tested on: MDA-MB-231 breast
[20] = tested on: MDA-MB-435
[21] = tested on: NCI/ADR-RES ovarian
[22] = tested on: COLO 205 colon
[23] = tested on: 786-0 renal
[24] = tested on: HCC-2998 colon
[25] = tested on: KM12 colon
[26] = tested on: SK-OV-3 ovarian
[27] = tested on: SN12C renal
[28] = tested on: SW-620 colon
[29] = tested on: MOLT-4 leukemia
[30] = tested on: SF-295 CNS
[31] = tested on: OVCAR-8 ovarian
[32] = tested on: A549 NSCLC
[33] = tested on: NCI-H460 lung
[34] = tested on: IGROV1 ovarian
[35] = tested on: SK-MEL-5 melanoma
[36] = tested on: UACC-257 melanoma
[37] = tested on: OVCAR-4 ovarian
[38] = tested on: PC-3 prostate
[39] = tested on: HOP-62 NSCLC
[40] = tested on: CCRF-CEM leukemia
[41] = tested on: K-562 leukemia
[42] = tested on: UO-31 renal
[43] = tested on: U251 CNS
[44] = tested on: SF-539 CNS
[45] = tested on: DU-145 prostate
[46] = tested on: HOP-92 NSCLC
[47] = tested on: NCI-H23 lung
[48] = tested on: A498 renal
[49] = tested on: NCI-H226 lung
[50] = tested on: UACC-62 melanoma
[51] = tested on: OVCAR-3 ovarian
[52] = tested on: RXF 393 renal
[53] = tested on: HT29 colon
[54] = tested on: CAKI-1 renal
[55] = tested on: LOX IMVI melanoma
[56] = tested on: MALME-3M melanoma
[57] = tested on: SR leukemia
[58] = tested on: SK-MEL-2 melanoma

Measured: TGI

COc1cc(C2c3cc4c(cc3[C@@H](Nc3ccc(F)cc3)C3CO[C@@H](O)[C@H]23)OCO4)cc(OC)c1O (some centres not stated)
5.23 µM: [5]
8.47 µM: [43]
14.7 µM: [10]
15 µM: [8]
10.3 µM: [30]
4.43 µM: [29]
12.8 µM: [7]
12.6 µM: [44]
8.28 µM: [42]
7.72 µM: [40]
6.88 µM: [14]
not listed: [45] | [46] | [47] | [48] | [49] | [50] | [51] | [52] | [53] | [54] | [55] | [56] | [57] | [58]
> 25 µM: all other assays above

Cc1ccc2c(/C=C/c3ccc(N(C)C)cc3)ccnc2c1C
43.6 µM: [6]
54 µM: [42]
72.3 µM: [25]
60.8 µM: [31]
31 µM: [18]
55.6 µM: [22]
62.3 µM: [53]
61.3 µM: [12]
63.9 µM: [8]
96.7 µM: [14]
48.4 µM: [52]
52.9 µM: [4]
40.6 µM: [56]
95.6 µM: [24]
57.1 µM: [46]
67.9 µM: [26]
64.3 µM: [38]
43.2 µM: [35]
38.5 µM: [3]
73.1 µM: [50]
80.7 µM: [5]
not listed: [34] | [37] | [57] | [58]
> 100 µM: all other assays above

CC(CO)CCNc1ncnc2c1ncn2CCC(=O)O (configuration not stated)
not listed: [16] | [24] | [43] | [58]
> 100 µM: all other assays above

COc1ccc(N(CN2C(=O)CCC2OC)C(C)=O)cc1 (configuration not stated)
not listed: [5] | [24]
> 100 µM: all other assays above

Cc1oc2c(cc(O)c3ccccc32)c2cccc1-2
34.8 µM: [19]
76.7 µM: [9]
not listed: [8] | [34] | [37] | [41] | [42] | [49] | [50] | [52] | [58]
> 100 µM: all other assays above
